According to patent US20040166058A1, “Ethylenedicysteine (EC)-drug conjugates, compositions and methods for tissue specific disease imaging” (Board of Regents, The University of Texas System, priority 2002, published 2004):

Assays:
[1] = test system: human lung cancer cells (A549 tumor cell line); test: Biodistribution in lung tumor-bearing nude mice; type: in vivo, athymic nude mice; conditions: for Biodistribution Blood / Biodistribution Brain / Biodistribution Heart / Biodistribution Intestine / Biodistribution Kidney / Biodistribution Liver / Biodistribution Lung / Biodistribution Muscle / Biodistribution Spleen / Biodistribution Stomach / Biodistribution Thyroid / Biodistribution Tumor / Tumor/Blood / Tumor/Lung / Tumor/Muscle: intravenously
Method: Female athymic nude mice (NCr-nu/nu, NCI, Bethasda, Md.) were inoculated with human lung cancer cells (A549 tumor cell line, 3×10^6 cells/mouse, intramuscular) by one author in the mid-dorsal region. After the tumor reached 6 mm, separate biodistribution studies using ^99mTc-EC-DG and 18F-FDG were conducted. Each received ^99mTc-EC-DG or 18F-FDG intravenously (n=3/time point). The injection activity was 1-3 μCi/mouse. The injected mass of ^99mTc-EC-DG was 0.2 mg/rodent.

[2] = test system: RBA CRL-1747 mammary tumor; test: Biodistribution in mammary (breast) tumor-bearing rats; type: in vivo; conditions: iv
Method: Biodistribution was assessed in mammary tumor-bearing rats (RBA CRL-1747, n=3/time interval, iv). Studies were performed 14 to 17 days after implantation when tumors reached approximately 1 cm in diameter. Following administration of the radiotracer, rats were sacrificed at 0.5-4 hrs. The selected tissues were excised, weighed and counted for radioactivity by using a gamma counter (Packard Instruments, Downers Grove, Ill.). The biodistribution of tracer in each sample was calculated as percentage of the injected dose per gram of tissue wet weight (% ID/g).
Biodistribution was assessed in breast tumor-bearing rats (RBA CRL-1747, n=3/time interval, iv). Studies were performed 14 to 17 days after implantation when tumors reached approximately 1 cm in diameter. Following administration of the radiotracer, rats were sacrificed at 0.5-4 hrs. The selected tissues were excised, weighed and counted for radioactivity by using a gamma counter (Packard Instruments, Downers Grove, Ill.). The biodistribution of tracer in each sample was calculated as percentage of the injected dose per gram of tissue wet weight (% ID/g).

[3] = test system: RBA CRL-1747 (breast cancer cells); test: In vitro cellular uptake in breast cancer cells; type: cell-based; conditions: 0.5-2 hrs, 50,000 cells/well
Source text: There was more uptake in ^99mTc-EC-carnitine than ^99mTc-EC (FIG. 16).

## OC[C@H]1OC(O)[C@H]([18F])[C@@H](O)[C@@H]1O (stereo partly drawn) [^18FDG, [^18F]fluorodeoxyglucose, reference compound]
[1]; 30 min
  Biodistribution Blood: 0.793 ± 0.067 % of injected dose per gram of tissue weight
  Biodistribution Brain: 6.557 ± 0.390 % of injected dose per gram of tissue weight
  Biodistribution Heart: 11.94 ± 2.571 % of injected dose per gram of tissue weight
  Biodistribution Intestine: 2.322 ± 0.542 % of injected dose per gram of tissue weight
  Biodistribution Kidney: 1.137 ± 0.117 % of injected dose per gram of tissue weight
  Biodistribution Liver: 1.051 ± 0.057 % of injected dose per gram of tissue weight
  Biodistribution Lung: 2.490 ± 0.209 % of injected dose per gram of tissue weight
  Biodistribution Muscle: 4.876 ± 0.621 % of injected dose per gram of tissue weight
  Biodistribution Spleen: 1.824 ± 0.196 % of injected dose per gram of tissue weight
  Biodistribution Stomach: 5.046 ± 0.461 % of injected dose per gram of tissue weight
  Biodistribution Thyroid: 4.490 ± 0.526 % of injected dose per gram of tissue weight
  Biodistribution Tumor: 2.226 ± 0.150 % of injected dose per gram of tissue weight
  Tumor/Blood: 2.821 ± 0.144
  Tumor/Lung: 0.912 ± 0.119
  Tumor/Muscle: 0.463 ± 0.026
[1]; 2 h
  Biodistribution Blood: 0.236 ± 0.009 % of injected dose per gram of tissue weight
  Biodistribution Brain: 3.113 ± 0.132 % of injected dose per gram of tissue weight
  Biodistribution Heart: 20.33 ± 7.675 % of injected dose per gram of tissue weight
  Biodistribution Intestine: 2.764 ± 0.496 % of injected dose per gram of tissue weight
  Biodistribution Kidney: 0.553 ± 0.104 % of injected dose per gram of tissue weight
  Biodistribution Liver: 0.586 ± 0.040 % of injected dose per gram of tissue weight
  Biodistribution Lung: 2.222 ± 0.137 % of injected dose per gram of tissue weight
  Biodistribution Muscle: 5.409 ± 0.611 % of injected dose per gram of tissue weight
  Biodistribution Spleen: 1.903 ± 0.144 % of injected dose per gram of tissue weight
  Biodistribution Stomach: 4.374 ± 0.864 % of injected dose per gram of tissue weight
  Biodistribution Thyroid: 4.617 ± 0.400 % of injected dose per gram of tissue weight
  Biodistribution Tumor: 1.699 ± 0.172 % of injected dose per gram of tissue weight
  Tumor/Blood: 7.261 ± 1.007
  Tumor/Lung: 0.775 ± 0.113
  Tumor/Muscle: 0.319 ± 0.031
[1]; 4 h
  Biodistribution Blood: 0.203 ± 0.062 % of injected dose per gram of tissue weight
  Biodistribution Brain: 2.065 ± 0.080 % of injected dose per gram of tissue weight
  Biodistribution Heart: 19.35 ± 8.286 % of injected dose per gram of tissue weight
  Biodistribution Intestine: 1.562 ± 0.342 % of injected dose per gram of tissue weight
  Biodistribution Kidney: 0.568 ± 0.027 % of injected dose per gram of tissue weight
  Biodistribution Liver: 0.785 ± 0.039 % of injected dose per gram of tissue weight
  Biodistribution Lung: 2.280 ± 0.182 % of injected dose per gram of tissue weight
  Biodistribution Muscle: 4.743 ± 0.610 % of injected dose per gram of tissue weight
  Biodistribution Spleen: 1.591 ± 0.161 % of injected dose per gram of tissue weight
  Biodistribution Stomach: 2.278 ± 0.455 % of injected dose per gram of tissue weight
  Biodistribution Thyroid: 4.424 ± 0.442 % of injected dose per gram of tissue weight
  Biodistribution Tumor: 1.606 ± 0.182 % of injected dose per gram of tissue weight
  Tumor/Blood: 8.932 ± 1.973
  Tumor/Lung: 0.717 ± 0.106
  Tumor/Muscle: 0.346 ± 0.048
[1]; mouse, in vivo
  tumor/blood ratios, 18F-FDG versus ^99mTc-EC-DG: higher tumor/blood ratios

## Cc1ccc(-c2cc(C(F)(F)F)nn2-c2ccc(S(=O)(=O)NC(=O)NCC(=O)NCCNC(=O)C3C[S][99Tc]45(=[O])[S]CC(C(=O)O)[N]4CC[N]35)cc2)cc1 (stereo not drawn) [^99mTc-EC-COX-2]
[2]; 0.5-4 hrs
  tumor-to-tissue count density ratios compared to ^99mTc-EC: increased tumor-to-tissue count density ratios as a function of time
[2]; 30 min
  BONE/MUSCLE: 2.419 ± 0.225
  Biodistribution BONE & JOINT: 0.324 ± 0.036 % of injected dose per gram of tissue weight
  Biodistribution Blood: 2.293 ± 0.038 % of injected dose per gram of tissue weight
  Biodistribution Heart: 0.475 ± 0.025 % of injected dose per gram of tissue weight
  Biodistribution Intestine: 0.406 ± 0.039 % of injected dose per gram of tissue weight
  Biodistribution Kidney: 4.963 ± 0.147 % of injected dose per gram of tissue weight
  Biodistribution Liver: 1.556 ± 0.046 % of injected dose per gram of tissue weight
  Biodistribution Lung: 1.033 ± 0.035 % of injected dose per gram of tissue weight
  Biodistribution Muscle: 0.133 ± 0.007 % of injected dose per gram of tissue weight
  Biodistribution Spleen: 0.594 ± 0.298 % of injected dose per gram of tissue weight
  Biodistribution Stomach: 0.370 ± 0.010 % of injected dose per gram of tissue weight
  Biodistribution Thyroid: 0.784 ± 0.090 % of injected dose per gram of tissue weight
  Biodistribution Tumor: 0.587 ± 0.062 % of injected dose per gram of tissue weight
  Biodistribution UTERUS: 0.595 ± 0.003 % of injected dose per gram of tissue weight
  Tumor/Blood: 0.255 ± 0.022
  Tumor/Muscle: 4.375 ± 0.304
  UTERUS/BLOOD: 0.259 ± 0.003
  UTERUS/MUSCLE: 4.471 ± 0.257
[2]; 2 h
  BONE/MUSCLE: 3.058 ± 0.114
  Biodistribution BONE & JOINT: 0.190 ± 0.003 % of injected dose per gram of tissue weight
  Biodistribution Blood: 1.388 ± 0.063 % of injected dose per gram of tissue weight
  Biodistribution Heart: 0.283 ± 0.017 % of injected dose per gram of tissue weight
  Biodistribution Intestine: 0.276 ± 0.061 % of injected dose per gram of tissue weight
  Biodistribution Kidney: 6.088 ± 0.305 % of injected dose per gram of tissue weight
  Biodistribution Liver: 1.461 ± 0.049 % of injected dose per gram of tissue weight
  Biodistribution Lung: 0.712 ± 0.098 % of injected dose per gram of tissue weight
  Biodistribution Muscle: 0.062 ± 0.003 % of injected dose per gram of tissue weight
  Biodistribution Spleen: 0.965 ± 0.056 % of injected dose per gram of tissue weight
  Biodistribution Stomach: 0.187 ± 0.004 % of injected dose per gram of tissue weight
  Biodistribution Thyroid: 0.449 ± 0.015 % of injected dose per gram of tissue weight
  Biodistribution Tumor: 0.424 ± 0.019 % of injected dose per gram of tissue weight
  Biodistribution UTERUS: 0.334 ± 0.034 % of injected dose per gram of tissue weight
  Tumor/Blood: 0.307 ± 0.018
  Tumor/Muscle: 6.876 ± 0.704
  UTERUS/BLOOD: 0.240 ± 0.021
  UTERUS/MUSCLE: 5.442 ± 0.852
[2]; 4 h
  BONE/MUSCLE: 4.314 ± 0.739
  Biodistribution BONE & JOINT: 0.178 ± 0.022 % of injected dose per gram of tissue weight
  Biodistribution Blood: 1.031 ± 0.033 % of injected dose per gram of tissue weight
  Biodistribution Heart: 0.224 ± 0.004 % of injected dose per gram of tissue weight
  Biodistribution Intestine: 0.190 ± 0.006 % of injected dose per gram of tissue weight
  Biodistribution Kidney: 6.363 ± 0.260 % of injected dose per gram of tissue weight
  Biodistribution Liver: 1.506 ± 0.080 % of injected dose per gram of tissue weight
  Biodistribution Lung: 0.500 ± 0.011 % of injected dose per gram of tissue weight
  Biodistribution Muscle: 0.002 ± 0.004 % of injected dose per gram of tissue weight
  Biodistribution Spleen: 0.981 ± 0.041 % of injected dose per gram of tissue weight
  Biodistribution Stomach: 0.139 ± 0.004 % of injected dose per gram of tissue weight
  Biodistribution Thyroid: 0.372 ± 0.021 % of injected dose per gram of tissue weight
  Biodistribution Tumor: 0.406 ± 0.004 % of injected dose per gram of tissue weight
  Biodistribution UTERUS: 0.263 ± 0.005 % of injected dose per gram of tissue weight
  Tumor/Blood: 0.395 ± 0.014
  Tumor/Muscle: 9.715 ± 0.387
  UTERUS/BLOOD: 0.255 ± 0.005
  UTERUS/MUSCLE: 6.278 ± 0.199
[3]
  cellular uptake compared to ^99mTc-EC: significant increase in uptake
